Data on eight compounds can be found in patent US8507411B2, “Neoglycorandomization and digitoxin analogs” (priority 2004, dated 2013).

Like-named read-outs stand apart in the source and are kept apart here. Where only a bound is given, the exact number is not on record here.

Experiment [1] deals with Hep3B. The experiment in a line: High-throughput calcein AM cytotoxicity assay, Hep3B. Type of experiment: cell-based, human. To be noted: Hep 3B cells. From the text: (§1) Standard errors are depicted with error bars.
For experiment [2], the system named is Du145. The experiment is described as follows: High-throughput calcein AM cytotoxicity assay, Du145. In kind it is cell-based, human. The conditions noted are these: Du145 cells.
Excerpt: as §1

Experiment [3] concerns NCI-H460. The experiment is described as follows: High-throughput calcein AM cytotoxicity assay, NCI-H460. In kind it is cell-based, human. To be noted: NCI-H460 cells.
Excerpt: as §1

The subject of experiment [4] is NmuMG. The experiment in a line: cells. In kind it is cell-based, mouse. In a few lines:
(§2)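 Compounds were tested at five concentrations in two-fold steps against attached cells and incubated for 72 h. Live cells were then quantified by calcein fluorescence after a 30 min calcein AM loading at 37 °C. Percent inhibition versus log concentration was fitted to a four-parameter logistic model.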

In experiment [5] the test system is MCF7. The experiment in a line: High-throughput calcein AM cytotoxicity assay, MCF7. In kind it is cell-based, human. To be noted: MCF7 cells.
Excerpt: as §1

Experiment [6] concerns SK-OV-3. The experiment is described as follows: cells. To be noted: SK-OV-3 cells. In kind it is cell-based, human. In a few lines:
as §2

The test system of experiment [7] is NCI/ADR-RES. The experiment is described as follows: cells. In kind it is cell-based, human. The conditions noted are these: NCI/ADR-RES cells. In a few lines: as §2
In experiment [8] the test system is SF-268. The experiment in a line: cells. To be noted: SF-268 cells. In kind it is cell-based, human. Summed up: as §2
The subject of experiment [9] is A549. The experiment is described as follows: High-throughput calcein AM cytotoxicity assay, A549. To be noted: A549 cells. In kind it is cell-based, human.
Excerpt: as §1

The test system of experiment [10] is HCT-116. The experiment in a line: High-throughput calcein AM cytotoxicity assay, HCT-116. Type of experiment: cell-based, human. The conditions noted are these: HCT-116 cells.
Excerpt: as §1

[11] abbreviates: NmuMG cells (mouse mammary normal epithelial control line), read-out: IC50.
The mark [12] stands for this setting: NmuMG mouse mammary normal epithelial control line, read-out: IC50, NmuMG.

Regarding `CON(C1CCC2(C)C(CCC3C2CCC2(C)C(C4=CC(=O)OC4)CCC32O)C1)C1OC(CO)C(O)C(O)C1NC(C)=O` [34α, N-acetyl-D-galactosaminoside], the IC50 in [1] (read-out: IC50), in experiment [2] (read-out: IC50), in [3] (read-out: IC50), in experiment [4] (setting [11]), in experiment [5] (read-out: IC50) and in experiment [6] (read-out: IC50) was more than 25 µM each time. In addition, the IC50 in experiment [7] (read-out: IC50), in [8] (read-out: IC50), in experiment [9] (read-out: IC50) and in [10] (read-out: IC50) was more than 25 µM each time.

For `CON(C1CCC2(C)C(CCC3C2CCC2(C)C(C4=CC(=O)OC4)CCC32O)C1)C1OC(CO)C(OC2OC(CO)C(O)C(O)C2O)C(O)C1O` (stereo not drawn) [36α, lactoside], the IC50 in experiment [1] (read-out: IC50), in experiment [2] (read-out: IC50), in experiment [3] (read-out: IC50), in experiment [4] (setting [11]), in [5] (read-out: IC50) and in [6] (read-out: IC50) was more than 25 µM each time. In addition, the IC50 in experiment [7] (read-out: IC50), in experiment [8] (read-out: IC50), in [9] (read-out: IC50) and in [10] (read-out: IC50) was more than 25 µM throughout.

For `CON(C1CCC2(C)C(CCC3C2CCC2(C)C(C4=CC(=O)OC4)CCC32O)C1)C1OC(CO)C(O)C(O)C1O` [18α, D-alloside], the IC50 in experiment [1] (read-out: IC50, Hep 3B) was more than 25 µM; in experiment [2] (read-out: IC50, Du145), more than 25 µM; in [3] (read-out: IC50, NCI-H460), more than 25 µM; in experiment [4] (setting [12]), more than 25 µM; in experiment [5] (read-out: IC50, MCF7) it was more than 25 µM; in experiment [6] (read-out: IC50, SK-OV-3) it was more than 25 µM. Moreover, the IC50 in [7] (read-out: IC50, NCI/ADR-RES) was more than 25 µM; in experiment [8] (read-out: IC50, SF-268) it was more than 25 µM; in [9] (read-out: IC50, A549), more than 25 µM; in experiment [10] (read-out: IC50, HCT-116), more than 25 µM.

Turning to D-arabinoside [33α], the IC50 in experiment [1] (read-out: IC50), in experiment [2] (read-out: IC50), in experiment [3] (read-out: IC50), in [4] (setting [11]), in [5] (read-out: IC50) and in experiment [6] (read-out: IC50) was more than 25 µM in each case. For the same compound, the IC50 in [7] (read-out: IC50), in experiment [8] (read-out: IC50), in experiment [9] (read-out: IC50) and in experiment [10] (read-out: IC50) was more than 25 µM each time.

For `CON(C1CCC2(C)C(CCC3C2CCC2(C)C(C4=CC(=O)OC4)CCC32O)C1)C1OC(CO)C(O)C(O)C1F` [12α, 2-deoxy-2-fluoro-D-glucoside], the IC50 is more than 25 µM in experiment [1] (read-out: IC50, Hep 3B); more than 25 µM in [2] (read-out: IC50, Du145); more than 25 µM in experiment [3] (read-out: IC50, NCI-H460); more than 25 µM in experiment [4] (setting [12]); more than 25 µM in [5] (read-out: IC50, MCF7); more than 25 µM in experiment [6] (read-out: IC50, SK-OV-3). For the same compound, the IC50 is more than 25 µM in [7] (read-out: IC50, NCI/ADR-RES); more than 25 µM in experiment [8] (read-out: IC50, SF-268); more than 25 µM in experiment [9] (read-out: IC50, A549); more than 25 µM in [10] (read-out: IC50, HCT-116).

With `CON(C1CCC2(C)C(CCC3C2CCC2(C)C(C4=CC(=O)OC4)CCC32O)C1)C1OC(CO)C(O)C(O)C1O` [22α, D-galactoside], the IC50 was more than 25 µM in experiment [1] (read-out: IC50, Hep 3B); more than 25 µM in experiment [2] (read-out: IC50, Du145); more than 25 µM in experiment [3] (read-out: IC50, NCI-H460); more than 25 µM in experiment [4] (setting [12]); more than 25 µM in experiment [5] (read-out: IC50, MCF7); more than 25 µM in experiment [6] (read-out: IC50, SK-OV-3). For the same compound, the IC50 is more than 25 µM in experiment [7] (read-out: IC50, NCI/ADR-RES); more than 25 µM in experiment [8] (read-out: IC50, SF-268); more than 25 µM in [9] (read-out: IC50, A549); more than 25 µM in experiment [10] (read-out: IC50, HCT-116).

On to `CON([C@H]1CC[C@@]2(C)[C@H](CC[C@@H]3[C@@H]2CC[C@]2(C)[C@@H](C4=CC(=O)OC4)CC[C@]32O)C1)[C@H]1O[C@@H](CO)[C@H](O)[C@H](O)[C@@H]1O` [17β, L-alloside], for which the IC50 in experiment [1] (read-out: IC50, Hep 3B) was 0.8 µM; in experiment [2] (read-out: IC50, Du145), 0.79 µM; in [3] (read-out: IC50, NCI-H460), 0.69 µM; in experiment [4] (setting [12]), 0.33 µM; in [5] (read-out: IC50, MCF7), 0.9 µM; in experiment [6] (read-out: IC50, SK-OV-3) it was 0.7 µM. Moreover, the IC50 in [7] (read-out: IC50, NCI/ADR-RES) is 0.16 µM; in experiment [8] (read-out: IC50, SF-268), 0.4 µM; in experiment [9] (read-out: IC50, A549) it was 0.24 µM; in experiment [10] (read-out: IC50, HCT-116), 0.5 µM.

For `CON([C@H]1CC[C@@]2(C)[C@H](CC[C@@H]3[C@@H]2CC[C@]2(C)[C@@H](C4=CC(=O)OC4)CC[C@]32O)C1)[C@@H]1O[C@H](CO)[C@@H](O)[C@H](O)[C@H]1F` [12β, 2-deoxy-2-fluoro-D-glucoside], the IC50 was 8 µM in [1] (read-out: IC50, Hep 3B); 9 µM in [2] (read-out: IC50, Du145); 2.9 µM in experiment [3] (read-out: IC50, NCI-H460); more than 25 µM in [4] (setting [12]); 8 µM in [5] (read-out: IC50, MCF7); 9 µM in experiment [6] (read-out: IC50, SK-OV-3). In addition, the IC50 in experiment [7] (read-out: IC50, NCI/ADR-RES) was 2.6 µM; in experiment [8] (read-out: IC50, SF-268) it was 7 µM; in experiment [9] (read-out: IC50, A549) it was 3.7 µM; in experiment [10] (read-out: IC50, HCT-116) it was 8 µM.
